Values of other authors, collected in patent US10722577B2, “Methods for treating GI syndrome and graft versus host disease” (Sloan Kettering Institute for Cancer Research, priority 2012, dated 2020).

Tested on: in vitro models of GvHD
Settings: previous work, U.S. Ser. No. 12/599,280; cited from earlier work

C[C@@H]1[C@H](O)[C@@H](C)/C=C/C=C/CC/C=C/C=C/C=C/C=C/C(O[C@H]2O[C@H](C)[C@@H](O)[C@H](N)[C@@H]2O)CC2O[C@](O)(CC(O)C(O)CCC(O)CC(O)CC(O)CC(=O)O[C@H]1C)CC(O)C2C(=O)O (stereo partly shown) [nystatin]
apoptosis in in vitro models of GvHD: beneficial effects in reducing apoptosis
